Results as given in ChEMBL document CHEMBL1201862, “PubChem BioAssay data set” (2004).
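Compound exposure: 48 hours, 5 concentrations, 96-well plates. Abbreviation: GI50, concentration required for 50% inhibition of growth.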 Active and inactive are the calls of the source. No stated cut-off is given here; in the data, active = GI50 up to about 1.1 µM and inactive = higher.

Assays:
Assay in all cases: DTP human tumour cell line panel, 48 h
U-251 = tested on: U-251
A549 = tested on: A549
SR = tested on: SR
LOX IMVI = tested on: LOX IMVI
HCC 2998 = tested on: HCC 2998
T47D = tested on: T47D
Malme-3M = tested on: Malme-3M
TK-10 = tested on: TK-10
IGROV-1 = tested on: IGROV-1
CAKI-1 = tested on: CAKI-1
SK-MEL-5 = tested on: SK-MEL-5
HOP-62 = tested on: HOP-62
COLO 205 = tested on: COLO 205
OVCAR-8 = tested on: OVCAR-8
OVCAR-3 = tested on: OVCAR-3
UACC-62 = tested on: UACC-62
RPMI-8226 = tested on: RPMI-8226
SK-MEL-2 = tested on: SK-MEL-2
SF-268 = tested on: SF-268
SF-295 = tested on: SF-295
K562 = tested on: K562
HCT-15 = tested on: HCT-15
SW-620 = tested on: SW-620
MOLT-4 = tested on: MOLT-4
SN12C = tested on: SN12C
PC-3 = tested on: PC-3
HCT-116 = tested on: HCT-116
HL-60 = tested on: HL-60
MDA-MB-435 = tested on: MDA-MB-435
HOP-92 = tested on: HOP-92
SK-OV-3 = tested on: SK-OV-3
A498 = tested on: A498
NCI-H522 = tested on: NCI-H522
HT-29 = tested on: HT-29
NCI-H226 = tested on: NCI-H226
CCRF-CEM = tested on: CCRF-CEM
EKVX = tested on: EKVX
M14 = tested on: M14
KM12 = tested on: KM12
UACC-257 = tested on: UACC-257
UO-31 = tested on: UO-31
NCI-H23 = tested on: NCI-H23
DU-145 = tested on: DU-145
786-0 = tested on: 786-0
OVCAR-5 = tested on: OVCAR-5
NCI/ADR-RES = tested on: NCI/ADR-RES
BT-549 = tested on: BT-549
MDA-MB-231 = tested on: MDA-MB-231
SF-539 = tested on: SF-539
MCF7 = tested on: MCF7
MDA-N = tested on: MDA-N
NCI-H460 = tested on: NCI-H460
SK-MEL-28 = tested on: SK-MEL-28
RXF 393 = tested on: RXF 393
SNB-19 = tested on: SNB-19
ACHN = tested on: ACHN
SNB-75 = tested on: SNB-75
OVCAR-4 = tested on: OVCAR-4

Q: What does the source list for Nc1ccc2c(c1)C1Oc3ccccc3CC1CO2 (stereo not drawn)?
A: GI50 (U-251): > 100 µM (inactive); GI50 (A549): > 100 µM (inactive); GI50 (SR): > 100 µM (inactive); GI50 (LOX IMVI): > 100 µM (inactive); GI50 (HCC 2998): > 100 µM (inactive); GI50 (T47D): 76 µM (inactive); GI50 (Malme-3M): > 100 µM (inactive); GI50 (TK-10): > 100 µM (inactive); GI50 (IGROV-1): > 100 µM (inactive); GI50 (CAKI-1): > 100 µM (inactive); GI50 (SK-MEL-5): > 100 µM (inactive); GI50 (HOP-62): > 100 µM (inactive); GI50 (COLO 205): > 100 µM (inactive); GI50 (OVCAR-8): > 100 µM (inactive); GI50 (OVCAR-3): > 100 µM (inactive); GI50 (UACC-62): > 100 µM (inactive); GI50 (RPMI-8226): > 100 µM (inactive); GI50 (SK-MEL-2): > 100 µM (inactive); GI50 (SF-268): > 100 µM (inactive); GI50 (SF-295): > 100 µM (inactive); GI50 (K562): > 100 µM (inactive); GI50 (HCT-15): 15.7 µM; GI50 (SW-620): > 100 µM (inactive); GI50 (MOLT-4): > 100 µM (inactive); GI50 (SN12C): > 100 µM (inactive); GI50 (PC-3): > 100 µM (inactive); GI50 (HCT-116): > 100 µM (inactive); GI50 (HL-60): > 100 µM (inactive); GI50 (MDA-MB-435): > 100 µM (inactive); GI50 (HOP-92): > 100 µM (inactive); GI50 (SK-OV-3): > 100 µM (inactive); GI50 (A498): > 100 µM (inactive); GI50 (NCI-H522): > 100 µM (inactive); GI50 (HT-29): > 100 µM (inactive); GI50 (NCI-H226): > 100 µM (inactive); GI50 (CCRF-CEM): > 100 µM (inactive); GI50 (EKVX): > 100 µM (inactive); GI50 (M14): > 100 µM (inactive); GI50 (KM12): > 100 µM (inactive); GI50 (UACC-257): > 100 µM (inactive); GI50 (UO-31): > 100 µM (inactive); GI50 (NCI-H23): > 100 µM (inactive); GI50 (DU-145): > 100 µM (inactive); GI50 (786-0): > 100 µM (inactive); GI50 (OVCAR-5): > 100 µM (inactive); GI50 (NCI/ADR-RES): > 100 µM (inactive); GI50 (BT-549): 74.6 µM (inactive); GI50 (MDA-MB-231): > 100 µM (inactive); GI50 (SF-539): > 100 µM (inactive); GI50 (MCF7): > 100 µM (inactive); GI50 (MDA-N): > 100 µM (inactive)

Q: With COc1ccccc1/N=C1\SCCN1C(=S)Nc1ccc(S(=O)(=O)/N=C/N(C)C)cc1 as the molecule, how does the GI50 (U-251) read?
A: > 100 µM (inactive)

Q: What about the GI50 (A549) of the same molecule?
A: > 100 µM (inactive)

Q: And the GI50 (LOX IMVI)?
A: 29.9 µM (inactive)

Q: And the GI50 (HCC 2998)?
A: > 100 µM (inactive)

Q: What about the GI50 (T47D) of the same molecule?
A: 25.8 µM (inactive)

Q: What about the GI50 (NCI-H460) of the same molecule?
A: > 100 µM (inactive)

Q: And the GI50 (TK-10)?
A: 36 µM (inactive)

Q: And the GI50 (CAKI-1)?
A: 33.7 µM (inactive)

Q: What about the GI50 (SK-MEL-28) of the same molecule?
A: 30.1 µM (inactive)

Q: And the GI50 (SK-MEL-5)?
A: 15.9 µM (inactive)

Q: And the GI50 (HOP-62)?
A: > 100 µM (inactive)

Q: What about the GI50 (COLO 205) of the same molecule?
A: 28.6 µM (inactive)

Q: What about the GI50 (OVCAR-8) of the same molecule?
A: 35.2 µM (inactive)

Q: What about the GI50 (OVCAR-3) of the same molecule?
A: 44 µM (inactive)

Q: What about the GI50 (UACC-62) of the same molecule?
A: 25.7 µM (inactive)

Q: And the GI50 (RPMI-8226)?
A: 21.6 µM (inactive)

Q: What about the GI50 (SF-268) of the same molecule?
A: 22.1 µM (inactive)

Q: And the GI50 (SF-295)?
A: > 100 µM (inactive)

Q: What about the GI50 (K562) of the same molecule?
A: 39.6 µM (inactive)

Q: And the GI50 (HCT-15)?
A: 31.6 µM

Q: What about the GI50 (SW-620) of the same molecule?
A: 44.9 µM (inactive)

Q: And the GI50 (MOLT-4)?
A: 22.6 µM (inactive)

Q: What about the GI50 (SN12C) of the same molecule?
A: 50.9 µM (inactive)

Q: And the GI50 (PC-3)?
A: > 100 µM (inactive)

Q: What about the GI50 (HCT-116) of the same molecule?
A: 41.7 µM (inactive)

Q: What about the GI50 (HL-60) of the same molecule?
A: 27.4 µM (inactive)

Q: And the GI50 (MDA-MB-435)?
A: 24.9 µM (inactive)

Q: What about the GI50 (HOP-92) of the same molecule?
A: 27.9 µM (inactive)

Q: And the GI50 (SK-OV-3)?
A: > 100 µM (inactive)

Q: And the GI50 (A498)?
A: > 100 µM (inactive)

Q: What about the GI50 (NCI-H226) of the same molecule?
A: > 100 µM (inactive)

Q: What about the GI50 (CCRF-CEM) of the same molecule?
A: 38.3 µM (inactive)

Q: And the GI50 (EKVX)?
A: 20.9 µM (inactive)

Q: And the GI50 (M14)?
A: 51.5 µM (inactive)

Q: What about the GI50 (RXF 393) of the same molecule?
A: 16.6 µM (inactive)

Q: And the GI50 (KM12)?
A: > 100 µM (inactive)

Q: What about the GI50 (UACC-257) of the same molecule?
A: 36.1 µM (inactive)

Q: And the GI50 (UO-31)?
A: 38.5 µM (inactive)

Q: What about the GI50 (NCI-H23) of the same molecule?
A: 27.1 µM (inactive)

Q: And the GI50 (SNB-19)?
A: > 100 µM (inactive)

Q: And the GI50 (DU-145)?
A: 29.6 µM (inactive)

Q: What about the GI50 (ACHN) of the same molecule?
A: 32.4 µM (inactive)

Q: What about the GI50 (786-0) of the same molecule?
A: 44.2 µM (inactive)

Q: And the GI50 (OVCAR-5)?
A: 87.5 µM (inactive)

Q: What about the GI50 (NCI/ADR-RES) of the same molecule?
A: 45 µM (inactive)

Q: And the GI50 (SNB-75)?
A: 29.6 µM (inactive)

Q: And the GI50 (BT-549)?
A: 21.9 µM (inactive)

Q: What about the GI50 (MDA-MB-231) of the same molecule?
A: > 100 µM (inactive)

Q: And the GI50 (OVCAR-4)?
A: 43.2 µM (inactive)

Q: And the GI50 (SF-539)?
A: 21.9 µM (inactive)

Q: What about the GI50 (MCF7) of the same molecule?
A: 26.1 µM (inactive)

Q: And the GI50 (MDA-N)?
A: 26.5 µM (inactive)
